Patent publication US11261201B2 (priority 2018, dated 2022)
Converted amounts (≈) assume the structure as drawn. Structures can show the parent of a compound that is named as a salt. Where two headings read alike, the source gives them in different places.

Tests used:
A. baumannii = experiment: Gram negative MIC protocol (OD600, LB, 24 h); details: Acinetobacter baumannii
Protocol: (§1) Overnight bacterial cultures were grown in LB with no added antibiotics at 37° C. with shaking. A 1:1000 dilution of these cultures into LB was exposed to concentration gradients of compounds in 96-well plates (100 μL per well assay volume). Resulting plates were incubated at 37° C. for 24 h without shaking, and OD600 was measured at the end of the incubation. MICs were determined as the lowest concentrations at which OD600 remained at baseline.

E. coli = experiment: Gram negative MIC protocol (OD600, LB, 24 h); details: Escherichia coli
Protocol: as §1

H37RvMA = experiment: Tuberculosis Alamar Blue/Resazurin assay (MIC); type: cell-based; details: read-out: WT H37Rv MTB Activity
[1] = read-out: MIC A. baumannii LB Media, A. baumannii, LB media, 24 h, OD600
[2] = read-out: MIC E. coli delta-TolC LB Media, E. coli delta-TolC strain, LB media, 24 h, OD600
[3] = read-out: MIC WT E. coli LB Media, wild-type E. coli, LB media, 24 h, OD600
[4] = Mycobacterium tuberculosis, H37RV, WT H37Rv MTB

Row | Compound | MIC (A. baumannii; [1]) [µM] | MIC (E. coli; [2]) [µM] | MIC (E. coli; [3]) [µM] | MIC (H37RvMA; [4]) [µM] | MIC (H37RvMA; WT H37Rv MTB) [µM] | MIC (A. baumannii; read-out: MIC A. baumannii LB Media) [µM] | MIC (H37RvMA; Mycobacterium tuberculosis, H37RV) [µM]
1 | Fc1ccc2c(c1)[C@@H](NCc1ccccc1)CC2 [B208, hydrochloride] | > 300 | > 300 | > 300 | > 150 | – | – | –
2 | COc1ccc2c(c1)[C@@H](NCc1ccccc1)CC2 [B209, (S)-N-benzyl-6-methoxy-2,3-dihydro-1H-inden-1-amine hydrochloride] | > 300 | > 300 | > 300 | > 150 | – | – | –
3 | CC(C)(C)OC(=O)N(Cc1ccccc1)C(C=O)CC1CCCCC1 (stereo not shown) [B210, tert-butyl benzyl(1-cyclohexyl-3-oxopropan-2-yl)carbamate] | > 300 | > 300 | > 300 | > 150 | – | – | –
4 | FC1(F)CCC(CCNCc2ccccc2)CC1 [B212, N-benzyl-2-(4,4-difluorocyclohexyl)ethanamine hydrochloride] | > 300 | > 300 | > 300 | > 150 | – | – | –
5 | c1ccc(CNCC2CCc3ccccc32)cc1 (stereo not shown) [B213, N-benzyl-1-(2,3-dihydro-1H-inden-1-yl)methanamine hydrochloride] | > 300 | > 300 | > 300 | > 150 | – | – | –
6 | Cl.c1ccc(CNCC2CCCc3ccccc32)cc1 (stereo not shown) [B214, N-benzyl-1-(1,2,3,4-tetrahydronaphthalen-1-yl)methanamine hydrochloride] | > 300 | > 300 | > 300 | – | >150 | – | –
7 | c1ccc(CNCCC2CCNCC2)cc1 [B215, N-benzyl-2-(piperidin-4-yl)ethanamine hydrochloride] | > 300 | > 300 | > 300 | > 150 | – | – | –
8 | CC(C)(C)OC(=O)N1CCC(CCNCc2ccccc2)CC1 [B216, tert-butyl 4-(2-(benzylamino)ethyl) piperidine-1-carboxylate] | > 300 | > 300 | > 300 | > 150 | – | – | –
9 | C[C@@H](Cc1ccccc1)NCc1ccccc1 [B217] | – | > 300 | > 300 | – | – | > 300 | > 150
10 | O=C1CCC(CCNCc2ccccc2)CC1 [B218, 4-(2-(benzylamino)ethyl) cyclohexanone] | > 300 | > 300 | > 300 | > 150 | – | – | –
11 | CC(/C=C/C1CCCCC1)NCc1ccccc1 (stereo not shown) [B219, (E)-N-benzyl-4-cyclohexylbut-3-en-2-amine] | > 300 | > 300 | > 300 | > 150 | – | – | –
12 | COc1cccc2c1B(O)OC2CNCc1ccccc1 (stereo not shown) [B220, 3-((benzylamino)methyl)-7-methoxybenzo[c][1,2]oxaborol-1(3H)-ol hydrochloride] | > 300 | > 300 | > 300 | > 150 | – | – | –
13 | CC1CCC(CCNCc2ccccc2)CC1 (stereo not shown) [B221] | 220 (≈ 50.9 µg/mL) | 150 (≈ 34.7 µg/mL) | 300 (≈ 69.4 µg/mL) | 150 (≈ 34.7 µg/mL) | – | – | –
14 | c1ccc(CNCCC2CCCCO2)cc1 (stereo not shown) [B222] | > 300 | > 150 | > 300 | > 150 | – | – | –
15 | c1ccc(CNCCN2CCCCC2)cc1 [B223] | > 300 | > 150 | > 300 | > 150 | – | – | –
16 | c1ccc(CNCCC2CCCNC2)cc1 (stereo not shown) [B224] | > 300 | > 150 | > 300 | > 150 | – | – | –
17 | FC(F)(F)c1ccccc1CNCCC1CCCCC1 [B225, 2-cyclohexyl-N-(2-(trifluoromethyl)benzyl)ethanamine hydrochloride] | 300 | > 150 | > 300 | > 150 | – | – | –

Row | Compound | MIC (A. baumannii; [1]) [µM] | MIC (E. coli; [2]) [µM] | MIC (E. coli; [3]) [µM] | MIC (H37RvMA; [4]) [µM] | MIC (H37RvMA; WT H37Rv MTB) [µM] | MIC (A. baumannii; read-out: MIC A. baumannii LB Media) [µM] | MIC (H37RvMA; Mycobacterium tuberculosis, H37RV) [µM]
18 | Oc1ccccc1CNCCC1CCCCC1 [B226, 2-((2-cyclohexylethylamino)methyl)phenol] | 54 (≈ 12.6 µg/mL) | 33 (≈ 7.7 µg/mL) | 54 (≈ 12.6 µg/mL) | 33 (≈ 7.7 µg/mL) | – | – | –
19 | CC(C)c1ccccc1CNCCC1CCCCC1 [B227, 2-cyclohexyl-N-(2-isopropylbenzyl)ethanamine hydrochloride] | 170 | 12 | 170 | 150 | – | – | –
20 | CCc1ccccc1CNCCC1CCCCC1 [B228, 2-cyclohexyl-N-(2-ethylbenzyl)ethanamine hydrochloride] | 300 | 20 | 170 | 91 | – | – | –
21 | c1ccc(-c2ccccc2CNCCC2CCCCC2)cc1 [B229, N-(biphenyl-2-ylmethyl)-2-cyclohexylethanamine hydrochloride] | 96 | 7 | 170 | 33 | – | – | –
22 | c1csc(-c2ccccc2CNCCC2CCCCC2)c1 [B230, 2-cyclohexyl-N-(2-(thiophen-2-yl)benzyl)ethanamine hydrochloride] | 96 | 4 | 96 | 55 | – | – | –
23 | c1cncc(-c2ccccc2CNCCC2CCCCC2)c1 [B231, 2-cyclohexyl-N-(2-(pyridin-3-yl)benzyl)ethanamine hydrochloride] | > 300 | 54 | 300 | > 150 | – | – | –
24 | c1ccc(Oc2ccccc2CNCCC2CCCCC2)cc1 [B232, 2-cyclohexyl-N-(2-phenoxybenzyl)ethanamine hydrochloride] | 96 | 17 | 170 | 91 | – | – | –
25 | c1ccc(C2CC2)c(CNCCC2CCCCC2)c1 [B233, 2-cyclohexyl-N-(2-cyclopropylbenzyl)ethanamine hydrochloride] | 170 | 10 | 300 | 91 | – | – | –
26 | c1ccc(-c2ccc3ccccc3c2)c(CNCCC2CCCCC2)c1 [B234, 2-cyclohexyl-N-(2-(naphthalen-2-yl)benzyl)ethanamine hydrochloride] | 31 | 10 | > 300 | 55 | – | – | –
27 | Nc1ccccc1CNCCC1CCCCC1 [B235, 2-((2-cyclohexylethylamino)methyl)aniline hydrochloride] | > 300 | 96 | 96 | > 150 | – | – | –
28 | c1coc(-c2ccccc2CNCCC2CCCCC2)c1 [B236, 2-cyclohexyl-N-(2-(furan-2-yl)benzyl)ethanamine hydrochloride] | 300 | 17 | 54 | 150 | – | – | –
29 | CN(C)c1ccccc1CNCCC1CCCCC1 [B237, 2-((2-cyclohexylethylamino)methyl)-N,N-dimethylaniline hydrochloride] | > 300 | 170 | > 300 | > 150 | – | – | –
30 | c1ccc(-c2cccc3ccccc23)c(CNCCC2CCCCC2)c1 [B238, 2-cyclohexyl-N-(2-(naphthalen-1-yl)benzyl)ethanamine hydrochloride] | 54 | 10 | > 300 | 55 | – | – | –
31 | CCNC(=O)COc1ccccc1CNC(C)CC1CCCCC1 (stereo not shown) [B239] | > 150 | 20 (≈ 6.65 µg/mL) | > 150 | > 150 | – | – | –
32 | CC(CC1CCCCC1)NCc1ccccc1OCc1nccs1 (stereo not shown) [B240] | > 150 | 7 (≈ 2.41 µg/mL) | > 150 | 150 (≈ 51.7 µg/mL) | – | – | –
33 | Cc1cc(COc2ccccc2CNC(C)CC2CCCCC2)on1 (stereo not shown) [B241] | > 150 | 4 (≈ 1.37 µg/mL) | 150 (≈ 51.4 µg/mL) | > 150 | – | – | –
34 | CCCNC(=O)COc1ccccc1CNC(C)CC1CCCCC1 (stereo not shown) [B242] | > 150 | 12 (≈ 4.16 µg/mL) | > 150 | > 150 | – | – | –
